Patent publication US8258182B2, “Substituted 1,3-diphenylpropane derivatives, preparations and uses thereof” (Genfit, priority 2006, dated 2012)

Tests used:
Type in all cases: in vivo, mouse
[1] = test system: PPARs target genes (PDK4, ACO, UCP2) in hepatic and skeletal muscle tissue; test: Expression of PPAR target genes in liver and skeletal muscle of db/db mice (quantitative RT-PCR); details: 50 mpk
Procedure: The effectiveness of the compounds according to the invention is also evaluated by measuring, in hepatic and muscular (skeletal) tissue, the expression of the genes involve in lipid and/or carbohydrate metabolism and in energy dissipation. Each level of gene expression is normalized in regarding the expression level of reference gene 36B4 in the hepatic tissue, or regarding the expression level of reference gene 18S in the gastrocnemius skeletal muscle. The induction factor, i.e. the ratio between the relative signal (induced by the compound according to the invention) and the average of relative values relating to the control group, is then calculated. The higher the induction factor is, the more the compound promotes gene expression. The final result is expressed as an average of the induction values obtained with each experimental group.
Female db/db mice were kept on a 12 hour/12 hour light/dark cycle at a constant temperature of 20±3° C. After a one week acclimatization period, the mice were weighed and divided into groups of 8 animals selected such as the distribution of body weight and of plasma lipid rate, determined before the experiment, was uniform. […] Taking of food and weight gain are recorded throughout the experiment. […]
1 μg of total RNA (quantified by spectrophotometry) was then reverse-transcripted into complementary DNA by means of a 1 hour reaction at 37° C. in a total volume of 20 μl containing a 1× buffer (Sigma), 1.5 mM of DTT, 0.18 mM of dNTPs (Promega), 200 ng of pdN6 (Amersham), 30U of RNase inhibitor (Sigma), and 1 μl of MMLV-RT (Sigma).
The PCR quantitative experiments were carried out using the MyiQ Single-Color Real-Time PCR Detection System (Biorad, Marnes-la-Coquette, France) and were performed using the iQ SYBR Green Supermix kit according to the provider's recommendations, in 96-well plates, with 5 μl of diluted reverse transcription solutions and at a hybridization temperature of 55° C. […]
The fluorescent quantity emitted is directly proportional to the amount of cDNA present at the beginning of the reaction and amplified during the PCR. […]

ApoE2/E2 mice = test: Plasma lipids in dyslipidemic ApoE2/E2 mice after per os treatment; details: 3 and 10 mpk per os, 14 days, vs control animals (FIG. 2-3)
Procedure: The dyslipidemic E2/E2 mouse's rates of total cholesterol, of triglycerides, and plasma free fatty acids are measured after 8 or 14 days of a per os treatment with the compounds according to the invention.
The hypolipidemic properties of the compounds according to the invention are evaluated in vivo by assaying plasma lipids and the analysis of the PPARs target genes expression in the liver after a treatment treating of the dyslipidemic E2/E2 mice with the compounds according to the invention.
The murine model used is the ApoE2/E2 mouse, a transgenic mouse having the human apolipoprotein E isoform E2 (Sullivan P M et al., 1998). In human, this apolipoprotein, a constituent of low and very low density lipoproteins (LDL-VLDL), is present in three isoforms E2, E3, and E4. The E2 form presents a mutation affecting the amino acid in position 158, which considerably weakens the affinity of this protein for LDL receptors. Accordingly, the VLDL clearance is nearly non-existent. An accumulation of low-density lipoproteins then occurs along with a mixed hyperlipidemia known as type III (elevated cholesterol and triglycerides).
The ApoE2/E2 transgenic mice were kept on a 12 hour/12 hour light/dark cycle at a constant temperature of 20±3° C. After a one week acclimatization period, the mice were weighed and divided into groups of 6 animals selected so as to render uniform the distribution of their body weights and plasma lipid rates, determined before the experiment. The tested compounds were suspended in carboxymethylcellulose (Sigma C4888) and administered by intra-gastric tube feeding once a day for 8 days (for compound 1) or 14 days (for compound 8) with the chosen doses. […] Taking of food and weight gain are recorded throughout the experiment. […]
Plasma lipid concentrations (total cholesterol and triglycerides) are measured by enzymatic doses (bioMérieux-Lyon-France) according to the provider's recommendations.
Plasma cholesterol and triglycerides rates are measured after 8 or 14 days of a per os treatment with the compounds according to the invention. […]

db/db mice = test: Plasma HDL-cholesterol, triglycerides and free fatty acids in db/db mice after per os treatment; details: 50 mpk per os, 28 days
Procedure: The effect of the compounds according to the invention is evaluated in vivo on the db/db mice by measuring the levels of HDL-cholesterol, triglycerides, and plasma free fatty acids after 28 days of a per os treatment with the compounds according to the invention.
The hypolipidemic properties of the compounds according to the invention are evaluated in vivo by measuring the plasma levels of plasmatic lipids and by analyzing the genetic expression PPARs target genes, after treating the dyslipidemic db/db mice with the compounds according to the invention, administered by the oral route.
Female db/db mice were kept on a 12 hour/12 hour light/dark cycle at a constant temperature of 20±3° C. After a one week acclimatization period, the mice were weighed and divided into groups of 8 animals selected such as the distribution of body weight and of plasma lipid rate, determined before the experiment, was uniform. The tested compounds were suspended in carboxymethylcellulose (Sigma C4888) and administered to the animals by intra-gastric gavage, once a day for 28 days at the chosen doses. The animals had free access to food and water (standard diet). Taking of food and weight gain are recorded throughout the experiment. At the end of the experiment, after a 4 hour fast, the animals were anesthetized and a blood sample was taken on anticoagulant (EDTA). Then the mice were weighed and euthanized. The plasma was separated by centrifugation at 3000 rotations/minute for 20 minutes. The samples were kept at +4° C. The hepatic tissue and skeletal muscle samples were taken and frozen immediately in liquid nitrogen then conserved at −80° C. for later analysis.
Plasma triglycerides concentrations are measured by enzymatic assays (bioMérieux-Lyon-France) according to the provider's recommendations.
Low-density lipoproteins (VLDL and LDL) are precipitated by phosphotungstate. The precipitate is eliminated by centrifugation. HDL-cholesterol present in the supernatant is measured by enzymatic assay (bioMérieux-Lyon-France) in accordance with the provider's recommendations.

CCCOc1ccc(C(=O)CCc2cc(C)c(OC(C)(C)C(=O)O)c(C)c2)cc1 [Compound 8, 2-[2,6-dimethyl-4-[3-[4-(propyloxy)phenyl]-3-oxo-propyl]phenoxyl]-2-methylpropanoic acid]
hepatic expression of the genes coding for PDK4 ([1]; 28 days (FIG. 3-4)): significant increase | hepatic expression of the genes coding for ACO ([1]; 28 days (FIG. 3-5)): significant increase | expression of the gene coding for UCP2 in the skeletal muscle ([1]; 28 days (FIG. 3-6)): increase | plasma total cholesterol rates (ApoE2/E2 mice): very significantly decreased | plasma HDL-cholesterol rates (db/db mice; vs control animals (FIG. 3-1)): significantly increased | circulating triglycerides rates (db/db mice; vs control animals (FIG. 3-2)): very significantly decreased | circulating free fatty acids rates (db/db mice; vs control animals (FIG. 3-3)): very significantly decreased
